Data published in patent US20240270698A2, “NOVEL PYRIMIDINE DERIVATIVE AND USE THEREOF” (KOREA RESEARCH INSTITUTE OF CHEMICAL TECHNOLOGY, priority 2019, published 2024).

How the values were obtained:
[1] = biological target: T1, human recombinant MLK3 protein (Homo sapiens, UniProt Q16584); experiment: MLK3 kinase activity assay (Eurofins, gamma-33P-ATP, filtermat scintillation counting); format: biochemical; conditions: human recombinant MLK3, 120 minutes at room temperature
T1 construct: purchased Eurofins
T1 sequence (Q16584 whole entry): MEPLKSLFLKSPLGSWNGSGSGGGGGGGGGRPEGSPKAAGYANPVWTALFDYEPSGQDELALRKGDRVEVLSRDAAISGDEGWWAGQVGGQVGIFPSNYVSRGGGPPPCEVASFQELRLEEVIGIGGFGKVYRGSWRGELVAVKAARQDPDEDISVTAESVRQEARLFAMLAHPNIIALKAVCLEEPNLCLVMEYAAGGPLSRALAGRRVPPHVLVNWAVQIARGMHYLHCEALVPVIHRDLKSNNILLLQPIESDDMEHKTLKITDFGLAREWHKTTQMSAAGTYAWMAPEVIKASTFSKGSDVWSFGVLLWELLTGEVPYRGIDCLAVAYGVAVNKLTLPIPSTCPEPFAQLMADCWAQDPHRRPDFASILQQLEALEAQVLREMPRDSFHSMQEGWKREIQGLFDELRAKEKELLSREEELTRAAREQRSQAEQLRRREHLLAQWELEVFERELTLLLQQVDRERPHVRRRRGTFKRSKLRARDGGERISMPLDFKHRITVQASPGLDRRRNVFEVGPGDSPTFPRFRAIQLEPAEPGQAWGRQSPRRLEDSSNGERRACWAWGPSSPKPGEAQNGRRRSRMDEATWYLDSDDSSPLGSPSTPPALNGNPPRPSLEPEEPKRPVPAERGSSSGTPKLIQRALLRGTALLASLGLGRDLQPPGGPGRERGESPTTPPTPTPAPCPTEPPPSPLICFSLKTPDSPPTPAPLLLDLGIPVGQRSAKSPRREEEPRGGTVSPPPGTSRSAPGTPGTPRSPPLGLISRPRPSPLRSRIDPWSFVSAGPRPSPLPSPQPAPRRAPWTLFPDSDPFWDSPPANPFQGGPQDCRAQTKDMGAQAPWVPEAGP

[2] = biological target: T2, human recombinant LRRK2 protein (Homo sapiens, UniProt Q5S007); experiment: LRRK2 kinase activity assay (Eurofins, gamma-33P-ATP, filtermat scintillation counting); format: biochemical; conditions: human recombinant LRRK2, 40 minutes at room temperature
T2 construct: purchased Eurofins
T2 sequence (Q5S007 whole entry): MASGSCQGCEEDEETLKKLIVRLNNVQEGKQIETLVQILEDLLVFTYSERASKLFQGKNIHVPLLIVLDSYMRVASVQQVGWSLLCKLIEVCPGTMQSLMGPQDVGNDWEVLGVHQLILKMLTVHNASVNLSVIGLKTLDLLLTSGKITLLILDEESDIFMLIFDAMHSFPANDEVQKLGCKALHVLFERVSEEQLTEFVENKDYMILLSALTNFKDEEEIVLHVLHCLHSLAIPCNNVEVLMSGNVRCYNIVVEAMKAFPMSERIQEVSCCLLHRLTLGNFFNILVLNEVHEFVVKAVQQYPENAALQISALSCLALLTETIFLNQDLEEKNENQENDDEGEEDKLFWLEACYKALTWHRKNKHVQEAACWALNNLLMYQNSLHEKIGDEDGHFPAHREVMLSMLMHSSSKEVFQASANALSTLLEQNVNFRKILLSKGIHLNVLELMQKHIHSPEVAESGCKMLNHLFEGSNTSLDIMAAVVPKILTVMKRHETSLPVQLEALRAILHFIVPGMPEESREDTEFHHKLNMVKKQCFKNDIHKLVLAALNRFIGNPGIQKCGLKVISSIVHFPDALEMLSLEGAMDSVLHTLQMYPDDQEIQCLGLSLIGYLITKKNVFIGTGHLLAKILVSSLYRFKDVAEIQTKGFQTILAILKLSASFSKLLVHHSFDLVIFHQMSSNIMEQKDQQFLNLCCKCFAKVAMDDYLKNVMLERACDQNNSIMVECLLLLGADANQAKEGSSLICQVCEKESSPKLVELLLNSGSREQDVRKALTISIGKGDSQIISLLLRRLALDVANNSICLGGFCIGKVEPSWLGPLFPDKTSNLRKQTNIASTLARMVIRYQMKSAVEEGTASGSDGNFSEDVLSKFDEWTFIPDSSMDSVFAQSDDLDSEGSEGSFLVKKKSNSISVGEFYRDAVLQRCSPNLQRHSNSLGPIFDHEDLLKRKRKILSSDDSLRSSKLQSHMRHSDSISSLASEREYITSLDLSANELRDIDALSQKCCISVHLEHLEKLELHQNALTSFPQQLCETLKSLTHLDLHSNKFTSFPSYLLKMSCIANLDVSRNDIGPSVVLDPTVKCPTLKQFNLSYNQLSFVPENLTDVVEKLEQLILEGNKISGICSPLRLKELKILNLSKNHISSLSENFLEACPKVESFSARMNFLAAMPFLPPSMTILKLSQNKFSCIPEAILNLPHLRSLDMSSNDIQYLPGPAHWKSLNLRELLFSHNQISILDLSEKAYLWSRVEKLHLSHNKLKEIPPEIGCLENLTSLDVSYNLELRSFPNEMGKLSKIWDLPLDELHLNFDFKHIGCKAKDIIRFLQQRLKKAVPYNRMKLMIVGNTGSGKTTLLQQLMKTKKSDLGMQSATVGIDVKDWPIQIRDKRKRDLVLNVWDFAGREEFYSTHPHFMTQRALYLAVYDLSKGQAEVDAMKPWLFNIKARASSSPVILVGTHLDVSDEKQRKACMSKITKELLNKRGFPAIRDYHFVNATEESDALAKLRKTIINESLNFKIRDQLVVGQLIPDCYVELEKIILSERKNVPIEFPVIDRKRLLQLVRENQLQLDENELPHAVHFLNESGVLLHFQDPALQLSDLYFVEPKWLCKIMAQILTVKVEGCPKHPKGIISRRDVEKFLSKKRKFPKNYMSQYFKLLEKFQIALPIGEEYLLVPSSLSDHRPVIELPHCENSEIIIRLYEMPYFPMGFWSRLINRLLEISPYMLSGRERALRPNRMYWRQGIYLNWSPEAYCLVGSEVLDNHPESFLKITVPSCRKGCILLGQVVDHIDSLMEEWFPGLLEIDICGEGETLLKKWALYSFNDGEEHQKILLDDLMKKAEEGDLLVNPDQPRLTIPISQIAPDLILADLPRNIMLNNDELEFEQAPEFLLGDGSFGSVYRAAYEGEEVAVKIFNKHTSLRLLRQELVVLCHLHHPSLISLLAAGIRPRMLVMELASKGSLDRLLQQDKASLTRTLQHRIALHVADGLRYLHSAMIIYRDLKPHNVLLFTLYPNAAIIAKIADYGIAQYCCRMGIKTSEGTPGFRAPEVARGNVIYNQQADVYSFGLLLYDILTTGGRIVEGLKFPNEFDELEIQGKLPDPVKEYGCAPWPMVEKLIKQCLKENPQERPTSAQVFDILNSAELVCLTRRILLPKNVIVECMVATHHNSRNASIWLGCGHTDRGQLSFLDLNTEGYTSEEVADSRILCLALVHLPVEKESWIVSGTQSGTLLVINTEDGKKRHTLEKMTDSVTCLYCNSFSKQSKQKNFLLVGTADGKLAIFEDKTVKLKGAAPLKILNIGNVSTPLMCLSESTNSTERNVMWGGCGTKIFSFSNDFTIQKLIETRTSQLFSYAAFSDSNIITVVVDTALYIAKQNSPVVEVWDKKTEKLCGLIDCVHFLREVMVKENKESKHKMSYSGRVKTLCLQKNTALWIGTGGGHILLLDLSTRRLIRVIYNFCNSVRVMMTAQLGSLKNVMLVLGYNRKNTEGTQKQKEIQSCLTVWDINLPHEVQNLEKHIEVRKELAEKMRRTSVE

HepG2 cancer cells = experiment: Anticancer activity, cell viability by CCK-8, HepG2; format: cell-based; conditions: HepG2, 10 μM, 72 hours
Outline: (§1)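 HS746T or HepG2 cells seeded at 4,000 cells/well, left 24 h, then exposed to compounds for 72 h. Viability measured by CCK-8 and expressed as % of untreated control.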

HS746T cancer cells = experiment: Anticancer activity, cell viability by CCK-8, HS746T; format: cell-based; conditions: 72 hours
Outline: as §1

IC50 [1]	IC50 [2]	SMILES	Cell viability (% of Con. 10 μM) HepG2 (HepG2 cancer cells)	Cell viability (% of Con. 10 μM) HS746T (HS746T cancer cells)
1 to 10 nM	10 to 100 nM	CP(C)(=O)c1ccccc1Nc1nc(Nc2ccc3[nH]nc(-c4ccc(S(C)(=O)=O)cc4)c3c2)ncc1Cl [compound 114, (2-((5-Chloro-2-((3-(4-(methylsulfonyl)phenyl)-1H-indazol-5-yl)amino)pyrimidin-4-yl)amino)phenyl)dimethylphosphine oxide]	68 % of Con.	33 % of Con.
1 to 10 nM	1 to 10 nM	CC1(C)NCCc2ccc(Nc3ncc(Cl)c(Nc4ccccc4P(C)(C)=O)n3)cc21 [compound 44, (2-((5-Chloro-2-((1,1-dimethyl-1,2,3,4-tetrahydroisoquinolin-7-yl)amino)pyrimidin-4-yl)amino)phenyl)dimethylphosphine oxide]	53 % of Con.	17 % of Con.
1 to 10 nM	1 to 10 nM	CC1NCCc2ccc(Nc3ncc(Cl)c(Nc4ccccc4P(C)(C)=O)n3)cc21 (centres unmarked) [compound 51, (2-((5-Chloro-2-((1-methyl-1,2,3,4-tetrahydroisoquinolin-7-yl)amino)pyrimidin-4-yl)amino)phenyl)dimethylphosphine oxide]	24 % of Con.	2 % of Con.
10 to 100 nM	1 to 10 nM	CP(C)(=O)c1ccccc1Nc1nc(Nc2ccc3[nH]c(C(F)(F)F)nc3c2)ncc1Cl [compound 75, (2-((5-Chloro-2-((2-(trifluoromethyl)-1H-benzo[d]imidazol-5-yl)amino)pyrimidin-4-yl)amino)phenyl)dimethylphosphine oxide]	28 % of Con.	21 % of Con.
10 to 100 nM	1 to 10 nM	CP(C)(=O)c1ccccc1Nc1nc(Nc2cccc3[nH]ccc23)ncc1Cl [compound 68, (2-((2-((1H-Indol-4-yl)amino)-5-chloropyrimidin-4-yl)amino)phenyl)dimethylphosphine oxide]	43 % of Con.	64 % of Con.
1 to 10 nM	1 to 10 nM	CP(C)(=O)c1ccccc1Nc1nc(Nc2ccc3cn[nH]c3c2)ncc1Cl [compound 64, (2-((2-((1H-Indazol-6-yl)amino)-5-chloropyrimidin-4-yl)amino)phenyl)dimethylphosphine oxide]	23 % of Con.	29 % of Con.
1 to 10 nM	1 to 10 nM	CC(C)C1NCCc2ccc(Nc3ncc(Cl)c(Nc4ccccc4P(C)(C)=O)n3)cc21 (centres unmarked) [compound 55, (2-((5-Chloro-2-((1-isopropyl-1,2,3,4-tetrahydroisoquinolin-7-yl)amino)pyrimidin-4-yl)amino)phenyl)dimethylphosphine oxide]	19 % of Con.	2 % of Con.
1 to 10 nM	1 to 10 nM	CP(C)(=O)c1ccccc1Nc1nc(Nc2ccc3[nH]nc(-c4cccc([N+](=O)[O-])c4)c3c2)ncc1Cl [compound 97, (2-((5-Chloro-2-((3-(3-nitrophenyl)-1H-indazol-5-yl)amino)pyrimidin-4-yl)amino)phenyl)dimethylphosphine oxide]	21 % of Con.	11 % of Con.
1 to 10 nM	10 to 100 nM	CC(C)(C)OC(=O)N1CCN(c2ccc(-c3n[nH]c4ccc(Nc5ncc(Cl)c(Nc6ccccc6P(C)(C)=O)n5)cc34)cc2)CC1 [compound 117, Tert-butyl 4-(4-(5-((5-chloro-4-((2-(dimethylphosphoryl)phenyl)amino)pyrimidin-2-yl)amino)-1H-indazol-3-yl)phenyl)piperazine-1-carboxylate]	68 % of Con.	20 % of Con.
1 to 10 nM	1 to 10 nM	CCCn1cc(-c2n[nH]c3ccc(Nc4ncc(Cl)c(Nc5ccccc5P(C)(C)=O)n4)cc23)cn1 [compound 95, (2-((5-Chloro-2-((3-(1-propyl-1H-pyrazol-4-yl)-1H-indazol-5-yl)amino)pyrimidin-4-yl)amino)phenyl)dimethylphosphine oxide]	39 % of Con.	19 % of Con.
1 to 10 nM	1 to 10 nM	CC1(C)CN(C(=O)C(F)(F)F)Cc2cc(Nc3ncc(Cl)c(Nc4ccccc4P(C)(C)=O)n3)ccc21 [compound 50, 1-(7-((5-Chloro-4-((2-(dimethylphosphoryl)phenyl)amino)pyrimidin-2-yl)amino)-4,4-dimethyl-3,4-dihydroisoquinolin-2(1H)-yl)-2,2,2-trifluoroethan-1-one]	20 % of Con.	2 % of Con.
10 to 100 nM	1 to 10 nM	CP(C)(=O)c1ccccc1Nc1nc(Nc2cccc3cc[nH]c23)ncc1Cl [compound 71, (2-((2-((1H-Indol-7-yl)amino)-5-chloropyrimidin-4-yl)amino)phenyl)dimethylphosphine oxide]	63 % of Con.	83 % of Con.
> 1000 nM	> 1000 nM	CP(C)(=O)c1ccccc1Nc1ncc(Cl)c(Nc2ccccc2P(C)(C)=O)n1 [compound 30, (((5-Chloropyrimidin-2,4-diyl)bis(azanediyl))bis(2,1-phenylene)) bis(dimethylphosphineoxide)]	102 % of Con.	85 % of Con.
1 to 10 nM	1 to 10 nM	CP(C)(=O)c1ccccc1Nc1nc(Nc2ccc3[nH]nc(-c4ccccc4)c3c2)ncc1Cl [compound 96, (2-((5-chloro-2-((3-phenyl-1H-indazol-5-yl)amino)pyrimidin-4-yl)amino)phenyl)dimethylphosphine oxide]	15 % of Con.	10 % of Con.
1 to 10 nM	1 to 10 nM	Cc1nc2ccc(Nc3ncc(Cl)c(Nc4ccccc4P(C)(C)=O)n3)cc2s1 [compound 17, (2-((5-Chloro-2-((2-methylbenzo[d]thiazol-6-yl)amino)pyrimidin-4-yl)amino)phenyl)dimethylphosphine oxide]	35 % of Con.	17 % of Con.
1 to 10 nM	1 to 10 nM	CP(C)(=O)c1ccccc1Nc1nc(Nc2cnc3[nH]nc(-c4cccnc4F)c3c2)ncc1Cl [compound 98, (2-((5-Chloro-2-((3-(2-fluoropyridin-3-yl)-1H-pyrazolo[3,4-b]pyridin-5-yl)amino)pyrimidin-4-yl)amino)phenyl)dimethylphosphine oxide]	27 % of Con.	10 % of Con.
1 to 10 nM	1 to 10 nM	CP(C)(=O)c1ccccc1Nc1nc(Nc2ccc3[nH]nc(Br)c3c2)ncc1Cl [compound 67, (2-((2-((3-Bromo-1H-indazol-5-yl)amino)-5-chloropyrimidin-4-yl)amino)phenyl)dimethylphosphine oxide]	33 % of Con.	25 % of Con.
10 to 100 nM	10 to 100 nM	CP(C)(=O)c1ccccc1Nc1nc(Nc2ccc3nc(S)sc3c2)ncc1Cl [compound 23, (2-((5-Chloro-2-((2-mercaptobenzo[d]thiazol-6-yl)amino)pyrimidin-4-yl)amino)phenyl)dimethylphosphine oxide]	27 % of Con.	26 % of Con.
1 to 10 nM	1 to 10 nM	COc1cc2c(cc1Nc1ncc(Cl)c(Nc3ccccc3P(C)(C)=O)n1)CN(C(=O)C(F)(F)F)CC2 [compound 62, 1-(7-((5-chloro-4-((2-(dimethylphosphoryl)phenyl)amino)pyrimidin-2-yl)amino)-6-methoxy-3,4-dihydroisoquinolin-2(1H)-yl)-2,2,2-trifluoroethan-1-one]	26 % of Con.	13 % of Con.
> 1000 nM	> 1000 nM	CN(C)c1ncc(F)c(NC2CCN(S(C)(=O)=O)CC2)n1 [compound 37, 5-Fluoro-N^2,N^2-dimethyl-N^4-(1-(methylsulfonyl)piperidin-4-yl) pyrimidine-2,4-diamine]	100 % of Con.	90 % of Con.
10 to 100 nM	1 to 10 nM	CP(C)(=O)c1ccccc1Nc1nc(Nc2ccc3ncccc3c2)ncc1Cl [compound 18, (2-((5-Chloro-2-(quinolin-6-ylamino)pyrimidin-4-yl)amino)phenyl) dimethylphosphine oxide]	32 % of Con.	16 % of Con.
1 to 10 nM	1 to 10 nM	CP(C)(=O)c1ccccc1Nc1nc(Nc2ccc3ncsc3c2)ncc1Cl [compound 11, (2-((2-(Benzo[d]thiazol-6-ylamino)-5-chloropyrimidin-4-yl)amino)phenyl)dimethylphosphine oxide]	28 % of Con.	27 % of Con.

SMILES	IC50 [1]	IC50 [2]	Cell viability (% of Con. 10 μM) HepG2 (HepG2 cancer cells)	Cell viability (% of Con. 10 μM) HS746T (HS746T cancer cells)
CP(C)(=O)c1ccccc1Nc1nc(Nc2ccc3c(c2)CN(C(=O)C(F)(F)F)CC3)ncc1Cl [compound 46, 1-(7-((5-Chloro-4-((2-(dimethylphosphoryl)phenyl)amino)pyrimidin-2-yl)amino)-3,4-dihydroisoquinolin-2(1H)-yl)-2,2,2-trifluoroethan-1-one]	1 to 10 nM	1 to 10 nM	26 % of Con.	13 % of Con.
